Experimental data taken from article PMC5342726, “Identification of small molecule inhibitors of ERCC1-XPF that inhibit DNA repair and potentiate cisplatin efficacy in cancer cells” (Oncotarget, 2016).

How the values were obtained:
[1] = test system: H460 cells; assay: Cisplatin intrastrand adduct repair by ELISA; assay type: cell-based; conditions: 72 hours (last time point), compound 15 μM 2 h then cisplatin at IC90 2 h; relative to 0 hour
[2] = target: T1, XPG (Homo sapiens, UniProt P28715); assay: Secondary screen, fluorescence assay with XPG endonuclease; assay type: biochemical; conditions: compound titration in the HTS assay
T1 sequence (P28715 1-1186): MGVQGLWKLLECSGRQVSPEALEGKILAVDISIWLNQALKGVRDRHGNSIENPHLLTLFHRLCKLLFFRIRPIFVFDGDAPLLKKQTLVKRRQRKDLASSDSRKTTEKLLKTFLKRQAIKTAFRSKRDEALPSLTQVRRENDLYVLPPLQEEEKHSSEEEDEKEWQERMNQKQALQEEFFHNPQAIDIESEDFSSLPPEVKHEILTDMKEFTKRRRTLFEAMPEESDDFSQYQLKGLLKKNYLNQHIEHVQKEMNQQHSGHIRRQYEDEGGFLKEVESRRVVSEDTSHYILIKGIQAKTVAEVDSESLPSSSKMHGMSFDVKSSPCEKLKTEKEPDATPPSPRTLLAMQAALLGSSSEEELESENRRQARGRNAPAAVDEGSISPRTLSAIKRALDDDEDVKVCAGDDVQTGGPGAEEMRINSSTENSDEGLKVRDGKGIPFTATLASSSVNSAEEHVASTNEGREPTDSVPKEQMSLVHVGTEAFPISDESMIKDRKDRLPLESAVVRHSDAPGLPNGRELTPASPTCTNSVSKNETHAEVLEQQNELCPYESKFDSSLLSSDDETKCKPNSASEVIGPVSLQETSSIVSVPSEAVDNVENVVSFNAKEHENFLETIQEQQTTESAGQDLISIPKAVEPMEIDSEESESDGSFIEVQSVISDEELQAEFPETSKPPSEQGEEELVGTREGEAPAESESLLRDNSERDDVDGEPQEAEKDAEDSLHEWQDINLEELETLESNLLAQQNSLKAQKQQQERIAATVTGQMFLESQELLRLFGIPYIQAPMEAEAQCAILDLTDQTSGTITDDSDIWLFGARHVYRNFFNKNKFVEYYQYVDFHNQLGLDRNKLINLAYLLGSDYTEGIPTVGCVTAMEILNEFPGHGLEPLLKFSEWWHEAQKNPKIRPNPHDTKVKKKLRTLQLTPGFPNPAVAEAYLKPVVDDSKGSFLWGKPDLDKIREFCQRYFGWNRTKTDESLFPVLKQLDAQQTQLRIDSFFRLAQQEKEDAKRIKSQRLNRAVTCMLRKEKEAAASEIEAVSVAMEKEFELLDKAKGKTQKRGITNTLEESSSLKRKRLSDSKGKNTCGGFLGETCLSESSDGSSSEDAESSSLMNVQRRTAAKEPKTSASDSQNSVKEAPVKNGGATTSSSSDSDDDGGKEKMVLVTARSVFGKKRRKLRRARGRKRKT

[3] = test system: H460 cells; assay: Colony survival assay in H460 cells; assay type: cell-based; conditions: for IC50: Homo sapiens, NCI-H460, Fig 4C, compound 4 h, cisplatin fixed at IC50 added after 2 h, read-out: compound titration with cisplatin at the IC50, colony survival; for fold change in cisplatin IC50 in combination: combination with cisplatin; for effect of compound alone on colony survival: compound titrated alone, 4 h
Procedure: We used H460, NSCLC cells, to first assess the impact on colony survival by knocking down ERCC1-XPF in these cells. […] Next, to assess if colony survival is affected we titrated cisplatin in these cells using a fixed concentration of Hit 1(50 μM) or Hit 2 (25 and 50 μM). […] Next, we assessed cisplatin potentiation by treating cells at a fixed cisplatin concentration (cisplatin IC50 in H460 cells) with Hit 1 or 2 titration (Figure 4C, filled symbols). H460 cells were treated with compound for a total of 4 hours while cisplatin was added to the media after 2 hours of compound pre-treatment. […] We also titrated Hit 1 or Hit 2 alone in these cells and treated for 4 h. […] We also assessed the effects of Hit 2 in another NSCLC cell line (H1299), which was either ERCC1 wildtype (WT) or knockout (KO) (Figure 4E).
Colony survival assay in a total reaction volume of 2.4 mL in a six-well plate Cells were split and seeded at a density of 300-400 format. Cells were transfected for 48 hours after which cells in a 60 mm plate and incubated overnight. The next complete media was added for 24 hours. Cells were day, the cells were treated with a fixed concentration of the seeded for clones and clones were selected using standard compound (Hit 1 or Hit 2) with cisplatin titration. After methods. ERCC1 KO clones were tested for ERCC1 treatment, fresh complete medium with antibiotics was and XPF expression by Western Blot using the ERCC1 added and the cells were then allowed to form colonies. In antibodies, 8F1, FL-297, and D-10 and the XPF antibody another method, the cells were seeded onto 60mm plates 3F2/3 (Santa Cruz).
Validation of genome editing was performed alone or titrated with a fixed concentration of cisplatin by PCR amplification with Taq polymerase (NEB) of (IC50 for the cell line used). Post treatment, the cells were exon 2 within the genomic DNA using the forward allowed to form colonies. Colonies were fixed with 95% primer: 5’ […]
methanol and stained with 0.2 % crystal violet. Colonies 3’ and the reverse primer: 5’ […]
with ≥50 cells were counted using a light microscope. Cell […] 3’. PCR product was cloned […]
survival was expressed as the ratio of average number of into a linearized pCR4-TOPO vector and transformed colonies in drug treated cells versus control cells x 100. into OneShot TOP10 E. coli using the TOPO-TA Cloning The experiment was done in triplicate for each drug Kit for Sequencing (Thermofisher). Bacterial colonies concentration. We have previously published the methods were selected with ampicillin and plasmid was extracted for ERCC1 and XPF knockdowns, which were used as using standard procedures. Plasmid was sequenced by controls. Briefly, cells were seeded onto six-well plates GeneWiz using an M13R primer. Potential sites of off-target editing in coding sequences were identified during
(density 2.5 × 10^5 cells /well) in antibiotic free media. guide RNA design with the Optimized CRISPR Design Two transfections were done at 24 h interval in each cell Tool. Primers were designed to amplify the exons line to knockdown ERCC1-XPF together according to containing the potential off-target sites and PCR product the manufacturer ’s (Dharmacon’s smartpools) protocol. was sequenced by GeneWiz. A list of specific off-target Addition of lipid reagent (Dharmafect 2, Dharmacon) sites and primers used to assess these off-target effects are […]

| Compound | intrastrand adducts remaining [1] | effect on XPG activity [2] | IC50 [3] | fold change in cisplatin IC50 in combination [3] | effect of compound alone on colony survival [3] |
| --- | --- | --- | --- | --- | --- |
| Cc1ccc(S(=O)(=O)Oc2cc(S(=O)(=O)O)cc3cc(S(=O)(=O)O)cc(N)c23)cc1 [NSC16168] | ~ 60% | no effect | 4 µM | ~ 3 fold | no effect on colony survival |
| Oc1cc(O)c2c(c1)OC(c1ccc(O)c(O)c1)C(O)C2c1c(O)cc(O)c2c1OC(c1ccc(O)c(O)c1)C(O)C2 (stereo not shown) [NSC143099] | ~ 65% | some effect on XPG activity at higher concentrations | 15 µM | ~ 3 fold | no effect on colony survival |
